Data taken from patent publication USRE49850E1, “N-(pyridin-2-yl)-4-(thiazol-5-yl)pyrimidin-2-amine derivatives as therapeutic compounds” (AUCENTRA THERAPEUTICS PTY LTD, priority 2015, dated 2024).

Legend:
[1] = molecular target: T1, CDK4D1 (Homo sapiens, UniProt P11802); experiment: Kinase assay CDK4/D1 (radiometric or ADP Glo); type: biochemical; conditions: apparent Ki calculated from Km (ATP) and IC50; read-out: CDK inhibition Ki CDK4D1
T1 construct: purchased Eurofins Pharma Discovery or Reaction Biology Corporation (service)
Method: (§1) Eurofins Pharma Discovery or Reaction Biology Corporation Kinase Profiler services were used to measure inhibition of CDKs and other kinases by radiometric assay. Inhibition of CDK4/D1, CDK6/D3 and CDK9/T1 were also determined in-house using ADP Glo Kinase assays (Promega Corporation, Madison, USA). Briefly, the kinase reaction for CDK4/D1 and CDK6/D3 was performed with kinase reaction buffer ([…] Tris base pH 7.5, 20 mM MgCl2, 0.4 mM DTT), 0.1 mg/ml BSA and RB-CTF substrate (retinoblastoma protein1 C-terminal fraction). For CDK9/CyclinT1, the kinase reaction was performed with standard assay buffer and Kinase Dilution Buffer and RBER-IRStide substrate. Serial dilutions of 1:3 were prepared for test compounds for 10 concentrations (from 10 μM to 0.5 nM). The kinase reactions were started by addition of ATP, incubated for 40 min at 37° C. and then stopped by adding 10 μL of ADP Glo reagent. After incubation at room temperature in the dark for 40 min, 20 μL of kinase detection reagent was added per well and incubated for 40 min. Luminescence was measured using an EnVision Multilabel plate reader (PerkinElmer, Buckinghamshire, UK). Positive and negative controls were perfonned in the presence and absence of CDK kinases, respectively. Half-maximal inhibition (IC50) values were calculated using a 4-parameter logistic non-linear regression model with Graphpad prism (Version 6.0). Apparent inhibition constants (Ki) values were calculated from Km (ATP) and IC50 values for the respective kinases.

[2] = system: MV4-11; experiment: Cell viability assay (resazurin, leukemia cell line) MV4-11; type: cell-based, human; conditions: Homo sapiens, MV4-11, 72 h; read-out: Anti-proliferative activity GI50 MV4-11
Description: (§2) Compounds from Example 1 were subjected to a standard MTT (3-(4,5-dimethylthiazol-2-yl)-2,5-diphenyltetrazolium bromide) and resazurin assays on solid tumour cell lines and leukemia cell lines, respectively, as previously reported (Wang S et al., J Med Chem 47:1662-1675, 2004 and Diab S. et al. CheMedChem 9:962-972, 2014).

[3] = system: MDA-MB-453; experiment: Cell viability assay (MTT, solid tumour cell line) MDA-MB-453; type: cell-based, human; conditions: Homo sapiens, MDA-MB-453, 72 h; read-out: Anti-proliferative activity GI50 MDA-MB-453
Description: as §2

[4] = molecular target: CDK1B (Homo sapiens, UniProt P06493); experiment: Kinase assay CDK1B (radiometric profiling service); type: biochemical; conditions: apparent Ki calculated from Km (ATP) and IC50; read-out: CDK inhibition Ki CDK1B
Method: as §1

[5] = molecular target: CDK 2A (Homo sapiens, UniProt P24941); experiment: Kinase assay CDK2A (radiometric profiling service); type: biochemical; conditions: apparent Ki calculated from Km (ATP) and IC50; read-out: CDK inhibition Ki CDK 2A
Method: as §1

[6] = molecular target: T2, CDK6D3 (Homo sapiens, UniProt Q00534); experiment: Kinase assay CDK6/D3 (radiometric or ADP Glo); type: biochemical; conditions: apparent Ki calculated from Km (ATP) and IC50; read-out: CDK inhibition Ki CDK6D3
T2 construct: purchased Eurofins Pharma Discovery or Reaction Biology Corporation (service)
Method: as §1

[7] = molecular target: T3, CDK9T1 (Homo sapiens, UniProt P50750); experiment: Kinase assay CDK9/T1 (radiometric or ADP Glo); type: biochemical; conditions: apparent Ki calculated from Km (ATP) and IC50; read-out: CDK inhibition Ki CDK9T1
T3 construct: purchased Eurofins Pharma Discovery or Reaction Biology Corporation (service)
Method: as §1

T1 sequence (P11802 whole entry): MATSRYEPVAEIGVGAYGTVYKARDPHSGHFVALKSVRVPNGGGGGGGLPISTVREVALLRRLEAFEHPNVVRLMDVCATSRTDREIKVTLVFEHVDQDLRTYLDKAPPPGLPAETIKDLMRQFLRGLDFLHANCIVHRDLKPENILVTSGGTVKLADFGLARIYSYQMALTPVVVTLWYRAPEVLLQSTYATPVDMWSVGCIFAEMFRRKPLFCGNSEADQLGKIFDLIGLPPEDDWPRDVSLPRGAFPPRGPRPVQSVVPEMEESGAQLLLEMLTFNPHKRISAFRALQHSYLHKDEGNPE
T1 sequence (P24385 whole entry partner): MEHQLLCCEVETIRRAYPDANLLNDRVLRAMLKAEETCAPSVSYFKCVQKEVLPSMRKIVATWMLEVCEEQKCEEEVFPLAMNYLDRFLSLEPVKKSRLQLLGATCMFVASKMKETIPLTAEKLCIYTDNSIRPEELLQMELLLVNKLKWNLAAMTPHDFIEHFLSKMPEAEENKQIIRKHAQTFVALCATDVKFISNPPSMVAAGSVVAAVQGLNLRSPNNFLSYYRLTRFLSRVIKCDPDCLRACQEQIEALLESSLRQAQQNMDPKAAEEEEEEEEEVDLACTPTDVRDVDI
T2 sequence (Q00534 whole entry): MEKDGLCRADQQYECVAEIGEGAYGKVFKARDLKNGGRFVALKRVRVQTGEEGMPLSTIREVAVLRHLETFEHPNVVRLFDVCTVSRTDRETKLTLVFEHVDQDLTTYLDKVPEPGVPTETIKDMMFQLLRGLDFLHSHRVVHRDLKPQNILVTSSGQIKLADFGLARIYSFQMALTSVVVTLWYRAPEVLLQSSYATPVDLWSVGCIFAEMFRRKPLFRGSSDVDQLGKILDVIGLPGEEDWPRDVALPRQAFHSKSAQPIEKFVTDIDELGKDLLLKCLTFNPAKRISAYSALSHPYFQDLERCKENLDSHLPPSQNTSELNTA
T2 sequence (P30281 whole entry partner): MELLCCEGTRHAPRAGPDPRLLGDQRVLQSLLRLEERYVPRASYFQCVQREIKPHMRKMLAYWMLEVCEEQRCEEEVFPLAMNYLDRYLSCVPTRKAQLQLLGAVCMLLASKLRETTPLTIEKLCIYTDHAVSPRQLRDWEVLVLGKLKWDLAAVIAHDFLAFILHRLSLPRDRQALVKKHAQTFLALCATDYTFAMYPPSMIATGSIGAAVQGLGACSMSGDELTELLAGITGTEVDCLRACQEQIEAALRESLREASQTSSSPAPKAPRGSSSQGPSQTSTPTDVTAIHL
T3 sequence (P50750 whole entry): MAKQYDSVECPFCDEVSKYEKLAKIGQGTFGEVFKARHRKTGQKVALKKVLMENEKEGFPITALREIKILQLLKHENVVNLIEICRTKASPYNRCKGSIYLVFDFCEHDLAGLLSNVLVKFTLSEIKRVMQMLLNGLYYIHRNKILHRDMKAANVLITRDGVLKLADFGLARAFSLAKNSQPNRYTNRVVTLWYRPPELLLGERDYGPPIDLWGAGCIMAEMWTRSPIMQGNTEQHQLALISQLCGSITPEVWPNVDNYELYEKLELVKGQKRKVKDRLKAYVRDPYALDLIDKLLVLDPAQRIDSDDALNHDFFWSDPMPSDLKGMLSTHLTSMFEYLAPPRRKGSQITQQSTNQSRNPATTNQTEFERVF
T3 sequence (O60563 whole entry partner): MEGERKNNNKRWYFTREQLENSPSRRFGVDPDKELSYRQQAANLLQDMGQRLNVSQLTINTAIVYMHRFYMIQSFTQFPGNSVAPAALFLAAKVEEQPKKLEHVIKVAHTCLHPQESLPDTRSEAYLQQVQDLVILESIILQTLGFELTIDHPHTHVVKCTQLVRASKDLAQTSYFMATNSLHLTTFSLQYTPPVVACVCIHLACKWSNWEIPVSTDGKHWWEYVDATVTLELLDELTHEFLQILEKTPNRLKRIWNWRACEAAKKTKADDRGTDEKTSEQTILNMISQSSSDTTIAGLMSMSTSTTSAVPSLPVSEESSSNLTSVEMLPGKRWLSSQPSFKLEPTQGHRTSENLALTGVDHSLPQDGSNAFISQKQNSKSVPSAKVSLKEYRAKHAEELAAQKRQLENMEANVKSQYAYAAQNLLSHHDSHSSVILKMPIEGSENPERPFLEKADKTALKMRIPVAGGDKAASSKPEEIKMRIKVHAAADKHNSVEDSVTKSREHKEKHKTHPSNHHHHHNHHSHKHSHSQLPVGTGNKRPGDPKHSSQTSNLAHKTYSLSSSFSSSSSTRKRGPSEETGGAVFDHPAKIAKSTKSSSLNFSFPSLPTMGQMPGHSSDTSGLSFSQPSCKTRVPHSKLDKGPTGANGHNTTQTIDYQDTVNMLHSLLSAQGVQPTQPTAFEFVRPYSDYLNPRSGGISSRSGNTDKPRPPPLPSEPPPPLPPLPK
Sequence of CDK1B (P06493 whole entry): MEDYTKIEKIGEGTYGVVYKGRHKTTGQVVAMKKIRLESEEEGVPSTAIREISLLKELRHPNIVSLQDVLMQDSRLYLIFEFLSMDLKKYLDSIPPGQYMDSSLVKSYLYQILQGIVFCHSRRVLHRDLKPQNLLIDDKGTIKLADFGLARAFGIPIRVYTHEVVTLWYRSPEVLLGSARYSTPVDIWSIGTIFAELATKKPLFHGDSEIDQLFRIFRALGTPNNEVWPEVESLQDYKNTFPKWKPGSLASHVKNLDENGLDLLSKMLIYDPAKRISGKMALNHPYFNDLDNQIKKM
Sequence of CDK1B (P14635 whole entry partner): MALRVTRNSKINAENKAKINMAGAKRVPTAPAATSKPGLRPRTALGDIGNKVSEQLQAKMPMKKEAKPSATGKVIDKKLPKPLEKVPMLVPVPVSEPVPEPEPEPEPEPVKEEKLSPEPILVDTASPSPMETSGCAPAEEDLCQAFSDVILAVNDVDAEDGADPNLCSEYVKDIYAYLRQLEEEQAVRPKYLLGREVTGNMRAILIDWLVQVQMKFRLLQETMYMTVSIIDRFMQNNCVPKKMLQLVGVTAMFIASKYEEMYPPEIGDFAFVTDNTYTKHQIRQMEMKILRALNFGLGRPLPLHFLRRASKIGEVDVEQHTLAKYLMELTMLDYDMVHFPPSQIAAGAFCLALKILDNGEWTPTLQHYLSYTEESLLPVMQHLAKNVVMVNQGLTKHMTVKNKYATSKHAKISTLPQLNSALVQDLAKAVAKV

| SMILES | Ki [1] [nM] | GI50 [2] [nM] | GI50 [3] [nM] | Ki [4] [nM] | Ki [5] [nM] | Ki [6] [nM] | Ki [7] [nM] |
| --- | --- | --- | --- | --- | --- | --- | --- |
| CNc1nc(C)c(-c2nc(Nc3ccc(N4CCCCC4)cn3)ncc2F)s1 [Compound 51, 5-(5-fluoro-2-((5-(piperidin-1-yl)pyridin-2-yl)amino)pyrimidin-4-yl)-N,4-dimethylthiazol-2-amine] | > 5000 | 606 ± 38 | 463 ± 75 |  |  |  |  |
| CNc1nc(C)c(-c2nc(Nc3ccccn3)ncc2F)s1 [Compound 54, 5-(5-fluoro-2-(pyridin-2-ylamino)pyrimidin-4-yl)-N,4-dimethylthiazol-2-amine] | > 5000 | 2160 ± 431 | 2940 ± 507 |  |  |  |  |
| Cc1nc(NC(C)C)sc1-c1ccnc(Nc2ccc(N3CCNCC3)cn2)n1 [Compound 55, N-isopropyl-4-methyl-5-(2-((5-(piperazin-1-yl)pyridin-2-yl)amino)pyrimidin-4-yl)thiazol-2-amine] | 5 | 93 ± 10 | 31 ± 2 | 3140 | 240 | 11 | 2420 |
| Cc1nc(NC(C)C)sc1-c1ccnc(Nc2ccc(N3CCN(C)CC3)cn2)n1 [Compound 56, N-isopropyl-4-methyl-5-(2-((5-(4-methylpiperazin-1-yl)pyridin-2-yl)amino)pyrimidin-4-yl)thiazol-2-amine] | 3 | 75 ± 5 | 618 ± 193 | 3810 | 399 | 15 | 773 |
| CC(=O)N1CCN(c2ccc(Nc3nccc(-c4sc(NC(C)C)nc4C)n3)nc2)CC1 [Compound 57, 1-(4-(6-((4-(2-(isopropylamino)-4-methylthiazol-5-yl)pyrimidin-2-yl)amino)pyridin-3-yl)piperazin-1-yl)ethan-1-one] | 21 | 2070 ± 321 | 344 ± 126 | 2700 | 200 | 105 | 3720 |
| Cc1nc(NC(C)C)sc1-c1ccnc(Nc2ccc(N3CCCNCC3)cn2)n1 [Compound 59, 5-(2-((5-(1,4-diazepan-1-yl)pyridin-2-yl)amino)pyrimidin-4-yl)-N-isopropyl-4-methylthiazol-2-amine] | 16 | 255 ± 85 | 938 ± 68 | > 5000 | 800 | 28 | 925 |
| Cc1nc(NC2CCCC2)sc1-c1nc(Nc2ccc(N3CCNCC3)cn2)ncc1F [Compound 61, N-cyclopentyl-5-(5-fluoro-2-((5-(piperazin-1-yl)pyridin-2-yl)amino)pyrimidin-4-yl)-4-methylthiazol-2-amine] | 3 | 53 ± 4 | 780 ± 598 | 2240 | 256 | 7 | 787 |
| FC(F)(F)c1nc(NC2CCCC2)sc1-c1ccnc(Nc2ccc(N3CCNCC3)cn2)n1 [Compound 62, N-cyclopentyl-5-(2-((5-(piperazin-1-yl)pyridin-2-yl)amino)pyrimidin-4-yl)-4-(trifluoromethyl)thiazol-2-amine] | 8 | 2 ± 1 | 81 ± 39 | 220 | 22 | 2 | 258 |
| Cc1nc(NC2CCCC2)sc1-c1ccnc(Nc2ccc(N3CCN(C)CC3)cn2)n1 [Compound 63, N-cyclopentyl-4-methyl-5-(2-((5-(4-methylpiperazin-1-yl)pyridin-2-yl)amino)pyrimidin-4-yl)thiazol-2-amine] | 2 | 9 | 130 ± 11 | 2680 | 206 | 9 | 180 |
| CN1CCN(c2ccc(Nc3nccc(-c4sc(NC5CCCC5)nc4C(F)(F)F)n3)nc2)CC1 [Compound 65, N-cyclopentyl-5-(2-((5-(4-methylpiperazin-1-yl)pyridin-2-yl)amino)pyrimidin-4-yl)-4-(trifluoromethyl)thiazol-2-amine] | 1 | 1 ± 1 | 420 ± 120 | 241 | 22 | 3 | 831 |
| CCN1CCN(c2ccc(Nc3ncc(F)c(-c4sc(NC5CCCC5)nc4C)n3)nc2)CC1 [Compound 67, N-cyclopentyl-5-(2-((5-(4-ethylpiperazin-1-yl)pyridin-2-yl)amino)-5-fluoropyrimidin-4-yl)-4-methylthiazol-2-amine] | 2 | 13 ± 2 | 66 ± 19 | > 5000 | 349 | 6 | > 5000 |
| CC(=O)N1CCN(c2ccc(Nc3nccc(-c4sc(NC5CCCC5)nc4C)n3)nc2)CC1 [Compound 68, 1-(4-(6-((4-(2-(Cyclopentylamino)-4-methylthiazol-5-yl)pyrimidin-2-yl)amino)pyridin-3-yl)piperazin-1-yl) ethan-1-one] | 6 | 24 ± 28 | 591 ± 256 | 3250 | 776 | 93 | 286 |
| CC(=O)N1CCN(c2ccc(Nc3nccc(-c4sc(NC5CCCC5)nc4C(F)(F)F)n3)nc2)CC1 [Compound 70, 1-(4-(6-((4-(2-(cyclopentylamino)-4-(trifluoromethyl)thiazol-5-yl)pyrimidin-2-yl)amino)pyridin-3-yl)piperazin-1-yl)ethan-1-one] | 4 | 12 ± 1 | 77 ± 1 | 297 | 14 | 6 | > 5000 |
| Cc1nc(NC2CCCC2)sc1-c1ccnc(Nc2ccc(N3CCC(N)CC3)cn2)n1 [Compound 74, 5-(2-((5-(4-aminopiperidin-1-yl)pyridin-2-yl)amino)pyrimidin-4-yl)-N-cyclopentyl-4-methylthiazol-2-amine] | 3 | 22 ± 2 | 55 ± 12 | 1230 | 181 | 133 | 173 |
| Cc1nc(NC2CCCC2)sc1-c1ccnc(Nc2ccc(N3CCCNCC3)cn2)n1 [Compound 76, 5-(2-((5-(1,4-diazepan-1-yl)pyridin-2-yl)amino)pyrimidin-4-yl)-N-cyclopentyl-4-methylthiazol-2-amine] | 1 | 29 ± 2 | 102 ± 117 | 4070 | 278 | 8 | 508 |
| Cc1nc(NC2CCCC2)sc1-c1ccnc(Nc2ccc(N3CCN(S(C)(=O)=O)CC3)cn2)n1 [Compound 77] |  | 176 ± 9 | 215 ± 52 |  |  |  |  |
| Cc1nc(NC2CCCC2)sc1-c1ccnc(Nc2ccccn2)n1 [Compound 78, N-cyclopentyl-4-methyl-5-(2-(pyridin-2-ylamino)pyrimidin-4-yl)thiazol-2-amine] | 570 | 300 ± 35 | 4380 ± 691 |  |  |  | > 5000 |
| O=CN1CCN(c2ccc(Nc3nccc(-c4sc(NC5CCCC5)nc4C(F)(F)F)n3)nc2)CC1 [Compound 79, 4-(6-((4-(2-(cyclopentylamino)-4-(trifluoromethyl)thiazol-5-yl)pyrimidin-2-yl)amino)pyridin-3-yl)piperazine-1-carbaldehyde] | 11 | 4 ± 1 | 336 ± 188 | 345 | 15 | 7 | > 5000 |
| Cc1nc(NC2CCCC2)sc1-c1nc(Nc2ccc(N3CCCNCC3)cn2)ncc1F [Compound 81, 5-(2-((5-(1,4-diazepan-1-yl)pyridin-2-yl)amino)-5-fluoropyrimidin-4-yl)-N-cyclopentyl-4-methylthiazol-2-amine] | 14 | 29 ± 2 | 83 ± 9 | > 5000 | 417 | 10 | 679 |
| CCN1CCN(Cc2ccc(Nc3nccc(-c4sc(NC5CCCC5)nc4C)n3)nc2)CC1 [Compound 83, N-cyclopentyl-5-(2-((5-((4-ethylpiperazin-1-yl)methyl)pyridin-2-yl)amino)pyrimidin-4-yl)-4-methylthiazol-2-amine] |  | 19 ± 3 | 4 ± 2 | > 5000 |  |  | 1980 |
